Laboratory results: article PMC4721923 (PLoS ONE, 2015)

T1: OCT3 (Homo sapiens, UniProt O75751)
T1 construct: expressed in transfected cells; host or cells: HEK293 (HEK-OCT3)
T1 sequence (O75751 1-556): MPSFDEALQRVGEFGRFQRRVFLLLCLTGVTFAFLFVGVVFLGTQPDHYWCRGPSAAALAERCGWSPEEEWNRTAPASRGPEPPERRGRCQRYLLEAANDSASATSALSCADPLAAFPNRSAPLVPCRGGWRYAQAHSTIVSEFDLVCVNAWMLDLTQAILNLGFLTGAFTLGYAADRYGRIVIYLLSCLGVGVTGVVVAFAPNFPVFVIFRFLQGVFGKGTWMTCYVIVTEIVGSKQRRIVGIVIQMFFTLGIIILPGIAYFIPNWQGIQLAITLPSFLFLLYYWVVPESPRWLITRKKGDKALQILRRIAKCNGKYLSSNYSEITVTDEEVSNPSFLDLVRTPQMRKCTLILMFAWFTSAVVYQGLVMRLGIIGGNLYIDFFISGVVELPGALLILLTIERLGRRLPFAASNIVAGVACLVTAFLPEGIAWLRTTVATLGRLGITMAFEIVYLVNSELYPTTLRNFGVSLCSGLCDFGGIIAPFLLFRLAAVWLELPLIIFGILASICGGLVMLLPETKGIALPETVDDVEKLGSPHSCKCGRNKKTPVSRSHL

T2: OCT1 (Homo sapiens, UniProt O15245)
T2 construct: containing the full length SLC22A1 cDNA (NM_003057) encoding the human OCT1 protein; expressed in transfected cells
T2 sequence (O15245 1-554): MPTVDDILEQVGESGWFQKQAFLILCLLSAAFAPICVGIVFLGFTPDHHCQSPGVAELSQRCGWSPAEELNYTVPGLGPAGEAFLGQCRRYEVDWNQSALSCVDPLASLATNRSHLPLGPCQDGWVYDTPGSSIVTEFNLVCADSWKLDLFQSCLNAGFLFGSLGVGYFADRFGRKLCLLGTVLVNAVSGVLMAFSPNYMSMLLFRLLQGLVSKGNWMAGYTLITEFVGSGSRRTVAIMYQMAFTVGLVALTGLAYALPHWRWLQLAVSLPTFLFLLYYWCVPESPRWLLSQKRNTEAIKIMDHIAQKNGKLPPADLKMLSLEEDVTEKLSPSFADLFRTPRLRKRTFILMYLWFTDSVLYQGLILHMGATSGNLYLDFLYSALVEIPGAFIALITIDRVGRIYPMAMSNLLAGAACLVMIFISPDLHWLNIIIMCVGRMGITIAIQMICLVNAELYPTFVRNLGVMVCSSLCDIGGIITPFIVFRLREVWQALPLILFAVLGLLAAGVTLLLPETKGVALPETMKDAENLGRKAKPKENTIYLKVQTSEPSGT

B1: OCT3 (Homo sapiens) (protein)
chain: T1 sequence (O75751 1-556)
notes: expressed in transfected cells; host or cells: HEK293 (HEK-OCT3)
B2: human OCT1 (Homo sapiens) (protein)
chain: T2 sequence (O15245 1-554)
notes: containing the full length SLC22A1 cDNA (NM_003057) encoding the human OCT1 protein; expressed in transfected cells

Legend:
OCT3 = biological target: T1, OCT3; experiment: Michaelis-Menten kinetics of ASP+ uptake, HEK-OCT3; type: cell-based
Method: (§1) The previously described fluorescent substrate of organic cation transporters, 4-(4-dimethylaminostyryl)-N-methylpyridinium (ASP^+), was used to determine the function of OCT1 and OCT3 by flow cytometry in the absence and the presence of bendamustine and selected bendamustine esters. HEK293 cells expressing the transporter of interest were trypsinized and washed twice with PBS, prior to re-suspension of 0.5 · 10^6 cells in 500 μL of PBS containing 2% (v/v) FCS. The cells were incubated with ASP^+ (100 μM stock solution in PBS containing 10% DMSO) for 5 minutes, allowing for cellular accumulation, and subsequently analyzed with a FACSCalibur flow cytometer. ASP^+ was excited at 488 nm and the fluorescence was measured using a 530/30 nm and a 585/42 band-pass filter. At least 1 · 10^4 single cells were analyzed by appropriate FSC/SSC gating.
(§2) Subsequently, two volumes of an ice-cold 200 μM solution of the standard inhibitor of OCT1 and OCT3, tetrapentyl ammonium (TPA), in PBS/FCS were added to one volume of cell suspension. The mixture was immediately analyzed. The mean fluorescence intensities (MFI) were calculated using FlowJo V10, and the difference between total (HEK-OCT1 or HEK-OCT3 cells) and unspecific (HEK-Co cells) uptake was plotted as specific uptake against the concentration of ASP^+. […] Km was calculated according to the Michaelis-Menten equation using GraphPad Prism 5.01.

OCT1 = biological target: T2, OCT1; experiment: Michaelis-Menten kinetics of ASP+ uptake, HEK-OCT1; type: cell-based
Method: as §1, §2

[1] = test system: LNCaP cells (prostate cancer); experiment: Chemosensitivity assay (MTT-assay), LNCaP; type: cell-based, human; conditions: Homo sapiens, 96 hours of incubation, mean ± SEM, read-out: IC50
Method: (§3) Depending on the characteristics of the cells, two different assays were performed. For adherently growing cells (HaCaT, HT-29, NCI-H460, SK-MEL-3, MG-63, Capan-1), cytotoxic and cytocidal effects were determined in the crystal violet assay, whereas for loosely adherent cells (LNCaP, SK-ES-1) and cells growing in suspension (HEL 92.1.7, Jurkat, U-937) the MTT-assay was used with minor modifications. In brief, 1.5 · 10^3 (HaCaT, HT-29, NCI-H460, SK-MEL-3, MG-63, Capan-1) or 5 · 10^3 (Jurkat, U-937, HEL92.1.7, LNCaP, SK-ES-1) cells per well were seeded into flat-bottom 96-well plates (Sarstedt, Nümbrecht, Germany). All compounds were used as solutions prepared in DMSO and tested at final concentrations (8 replicates per concentration) of 1, 3, 10, 30 and 50 μM. In case of the vehicle control and test compounds, the final DMSO concentration amounted to 0.1%. Absorbance was measured at 580 nm in a 96-well plate reader (GENios pro microplate reader, Tecan, Salzburg, Austria). Effects were quantified as previously described for both assays.

[2] = test system: HEL 92.1.7 cells (erythroleukemia); experiment: Chemosensitivity assay (MTT-assay), HEL 92.1.7; type: cell-based, human; conditions: Homo sapiens, HEL 92.1.7, 96 h, 96 hours of incubation, mean ± SEM
Method: as §3

[3] = test system: NCI-H460 cells (large cell lung cancer); experiment: Chemosensitivity assay (crystal violet assay), NCI-H460; type: cell-based, human; conditions: Homo sapiens, 96 hours of incubation, mean ± SEM, read-out: IC50
Method: as §3

[4] = test system: SK-ES-1 cells (Ewing's sarcoma); experiment: Chemosensitivity assay (MTT-assay), SK-ES-1; type: cell-based, human; conditions: 96 hours of incubation, mean ± SEM
Method: as §3

[5] = test system: SK-MEL-3 cells (malignant melanoma); experiment: Chemosensitivity assay (crystal violet assay), SK-MEL-3; type: cell-based, human; conditions: Homo sapiens, SK-MEL3, 96 hours of incubation, mean ± SEM, read-out: IC50
Method: as §3

[6] = test system: HT-29 cells (colorectal adenocarcinoma); experiment: Chemosensitivity assay (crystal violet assay), HT-29; type: cell-based, human; conditions: Homo sapiens, 96 hours of incubation, mean ± SEM, read-out: IC50
Method: as §3

[7] = test system: Jurkat cells (acute T-cell leukemia); experiment: Chemosensitivity assay (MTT-assay), Jurkat; type: cell-based, human; conditions: Homo sapiens, 96 h, 96 hours of incubation, mean ± SEM
Method: as §3

[8] = test system: U-937 cells (histiocytic lymphoma); experiment: Chemosensitivity assay (MTT-assay), U-937; type: cell-based, human; conditions: Homo sapiens, U-937, 96 h, 96 hours of incubation, mean ± SEM
Method: as §3

[9] = test system: Capan-1 cells (pancreatic adenocarcinoma); experiment: Chemosensitivity assay (crystal violet assay), Capan-1; type: cell-based, human; conditions: Homo sapiens, CAPAN-1, 96 h, 96 hours of incubation, mean ± SEM
Method: as §3

[10] = test system: MG-63 cells (osteosarcoma); experiment: Chemosensitivity assay (crystal violet assay), MG-63; type: cell-based, human; conditions: Homo sapiens, MG-63, 96 h, 96 hours of incubation, crystal violet assay, mean ± SEM
Method: as §3

[11] = substrate: CN(C)c1ccc(/C=C/c2cc[n+](C)cc2)cc1; experiment: Michaelis-Menten kinetics of ASP+ uptake, HEK-OCT3; type: cell-based, human; conditions: other: HEK-OCT3; substrate uptake, flow cytometry; 37.0 °C
Method: as §1, §2

[12] = substrate: CN(C)c1ccc(/C=C/c2cc[n+](C)cc2)cc1; experiment: Michaelis-Menten kinetics of ASP+ uptake, HEK-OCT1; type: cell-based, human; conditions: other: HEK-OCT1; substrate uptake, flow cytometry; 37.0 °C
Method: as §1, §2

Row | Molecule | vmax (maximal uptake rate) (OCT3) | vmax (maximal uptake rate) (OCT1) | IC50 [1] [µM] | IC50 [2] [µM] | IC50 [3] [µM] | IC50 [4] [µM] | IC50 ([4]; Homo sapiens, SK-ES1, 96 h) [µM] | IC50 [5] [µM] | IC50 [6] [µM] | IC50 [7] [µM] | IC50 [8] [µM] | IC50 [9] [µM] | IC50 [10] [µM] | Km [11] [µM] | Km [12] [µM]
1 | CN(C)c1ccc(C=Cc2cc[n+](C)cc2)cc1.[I-] [ASP^+, 4-[4-(dimethylamino)styryl]-N-methylpyridinium iodide] | 5321 ± 89 MFI/(10^4 cells · min) | 2808 ± 78 MFI/(10^4 cells · min) |  |  |  |  |  |  |  |  |  |  |  |  | 
2 | CCOC(=O)CCCc1nc2cc(N(CCCl)CCCl)ccc2n1C [Compound 3] |  |  | 1.5 ± 0.1 | 2.9 ± 0.2 | 4.8 ± 0.1 | 0.18 ± 0.01 | ~0.2 | 21.7 ± 4.1 | 10 ± 0.1 | 3.8 ± 0.04 | 1.9 ± 0.01 | 1 ± 0.01 | 2.1 ± 0.06 |  | 
3 | Cn1c(CCCC(=O)OCCN2CCCCC2)nc2cc(N(CCCl)CCCl)ccc21 [Compound 6] |  |  | 0.75 ± 0.03 | 1.3 ± 0.1 | 1.2 ± 0.1 |  | 0.19 ± 0.01 | 1.24 ± 0.1 | 1.7 ± 0.1 | 0.83 ± 0.01 | 1.1 ± 0.2 | 0.17 ± 0.01 | 0.53 ± 0.01 |  | 
4 | CN1CCN(CCOC(=O)CCCc2nc3cc(N(CCCl)CCCl)ccc3n2C)CC1 [Compound 7] |  |  | 0.93 ± 0.12 | 1.7 ± 0.1 | 1.2 ± 0.1 |  | 0.19 ± 0.03 | 1 ± 0.27 | 2.4 ± 0.1 | 0.9 ± 0.03 | 1.3 ± 0.3 | 0.25 ± 0.02 | 0.55 ± 0.01 |  | 
5 | B1 |  |  |  |  |  |  |  |  |  |  |  |  |  | 2.7 ± 0.1 | 
6 | B2 |  |  |  |  |  |  |  |  |  |  |  |  |  |  | 3.1 ± 0.1
